Patent US20230257372A1 (CHONG KUN DANG PHARMACEUTICAL CORP., priority 2020, published 2023)
Like-named read-outs stand apart in the source and are kept apart here.

Experiments:
human recombinant HDAC1 = molecular target: T1, human recombinant HDAC1 (Homo sapiens, UniProt Q13547); assay: HDAC1 enzyme activity inhibition (HDAC Fluorimetric Drug Discovery Kit); type: biochemical; details: read-out: HDAC1
T1 construct: purchased Enzo Life Science, Inc. BML-SE456
Protocol: (§1) An experiment was conducted to identify the selectivity of the compound represented by formula I of the present invention to HDAC6 through an experiment on HDAC1 and HDAC6 enzyme activity inhibition.
(§2) A 5-fold dilution of the compound was divided into a 96-well plate, after which […] of the enzyme and 10 μM of the substrate were inserted into each well and subjected to reaction at 30° C. for 60 minutes, such that Fluor de Lys® Developer II (BML-KI176) was inserted thereinto and subjected to reaction for 30 minutes and finished.

human recombinant HDAC6 = molecular target: T2, human recombinant HDAC6 (Homo sapiens, UniProt Q9UBN7); assay: HDAC6 enzyme activity inhibition (HDAC Fluorimetric Drug Discovery Kit); type: biochemical
T2 construct: purchased Calbiochem Inc. 382180
T2 sequence (Q9UBN7 1-1215): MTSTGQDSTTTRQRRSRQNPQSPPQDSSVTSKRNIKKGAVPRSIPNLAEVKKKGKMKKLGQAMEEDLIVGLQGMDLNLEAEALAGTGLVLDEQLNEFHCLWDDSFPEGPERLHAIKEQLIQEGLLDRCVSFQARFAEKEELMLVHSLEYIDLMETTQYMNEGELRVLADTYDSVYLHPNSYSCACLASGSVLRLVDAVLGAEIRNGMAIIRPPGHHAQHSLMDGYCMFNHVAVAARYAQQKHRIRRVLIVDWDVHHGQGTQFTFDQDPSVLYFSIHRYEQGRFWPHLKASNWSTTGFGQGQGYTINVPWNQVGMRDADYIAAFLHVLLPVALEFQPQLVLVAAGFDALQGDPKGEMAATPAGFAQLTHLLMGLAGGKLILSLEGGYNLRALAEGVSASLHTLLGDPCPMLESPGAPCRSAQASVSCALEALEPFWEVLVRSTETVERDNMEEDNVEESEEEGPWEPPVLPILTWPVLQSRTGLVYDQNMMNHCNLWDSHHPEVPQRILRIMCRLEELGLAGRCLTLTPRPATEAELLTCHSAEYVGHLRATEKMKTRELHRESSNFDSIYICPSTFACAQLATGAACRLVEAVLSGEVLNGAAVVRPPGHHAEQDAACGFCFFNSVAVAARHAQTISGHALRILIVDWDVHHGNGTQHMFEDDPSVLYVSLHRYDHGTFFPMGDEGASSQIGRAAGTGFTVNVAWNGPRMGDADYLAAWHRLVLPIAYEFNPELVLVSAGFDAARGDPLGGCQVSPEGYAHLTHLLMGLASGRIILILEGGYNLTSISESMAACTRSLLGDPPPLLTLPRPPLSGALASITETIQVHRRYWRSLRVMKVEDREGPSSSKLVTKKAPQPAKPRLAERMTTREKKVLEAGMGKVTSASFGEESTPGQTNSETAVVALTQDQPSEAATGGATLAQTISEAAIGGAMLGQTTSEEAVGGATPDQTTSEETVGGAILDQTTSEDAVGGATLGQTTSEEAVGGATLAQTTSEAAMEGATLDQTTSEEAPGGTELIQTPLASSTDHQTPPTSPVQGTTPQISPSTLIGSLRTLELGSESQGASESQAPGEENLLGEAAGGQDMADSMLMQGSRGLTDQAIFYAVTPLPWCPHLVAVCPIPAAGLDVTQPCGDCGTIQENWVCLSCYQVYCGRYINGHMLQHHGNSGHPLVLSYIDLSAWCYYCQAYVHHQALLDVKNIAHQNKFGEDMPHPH
Protocol: as §1, §2

[1] = human recombinant HDAC1, IC50 calculated with GraphPad Prism
[2] = human recombinant HDAC6, IC50 calculated with GraphPad Prism
[3] = human recombinant HDAC1, Fluor de Lys substrate, 30° C. 60 minutes
[4] = human recombinant HDAC6, same protocol as HDAC1

T1 sequence (Q13547 whole entry): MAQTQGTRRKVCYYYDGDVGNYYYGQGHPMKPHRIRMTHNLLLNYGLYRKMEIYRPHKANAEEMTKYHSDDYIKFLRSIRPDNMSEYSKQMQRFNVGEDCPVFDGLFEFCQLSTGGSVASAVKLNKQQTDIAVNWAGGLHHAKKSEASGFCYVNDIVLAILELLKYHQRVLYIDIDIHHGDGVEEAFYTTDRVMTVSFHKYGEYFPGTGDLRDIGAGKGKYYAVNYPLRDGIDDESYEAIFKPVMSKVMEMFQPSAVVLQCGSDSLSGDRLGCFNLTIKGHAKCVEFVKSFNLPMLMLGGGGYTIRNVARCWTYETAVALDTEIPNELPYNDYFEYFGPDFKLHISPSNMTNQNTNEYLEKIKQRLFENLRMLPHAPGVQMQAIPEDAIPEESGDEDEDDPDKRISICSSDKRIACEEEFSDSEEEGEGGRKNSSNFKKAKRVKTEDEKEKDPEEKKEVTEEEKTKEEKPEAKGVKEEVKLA

CN1CC(N2CCC(c3cccc(-c4cn(Cc5ccc(-c6nnc(C(F)F)o6)cc5F)nn4)c3)CC2)C1 [Compound 4294, 2-(difluoromethyl)-5-(3-fluoro-4-((4-(3-(1-(1-methylazetidin-3-yl)piperidin-4-yl)phenyl)-1H-1,2,3-triazol-1-yl)methyl)phenyl)-1,3,4-oxadiazole]
IC50 (human recombinant HDAC1; [1]): > 50000 nM | HDAC6 selectivity (fold) (human recombinant HDAC6; HDAC1 IC50 / HDAC6 IC50): 791 fold | IC50 (human recombinant HDAC6; [2]): 63.2 nM

Fc1cc(-c2cn(Cc3ncc(-c4nnc(C(F)F)o4)cc3F)nn2)ccc1CN1CCCCC1 [Compound 18950, 2-(difluoromethyl)-5-(5-fluoro-6-((4-(3-fluoro-4-(piperidin-1-ylmethyl)phenyl)-1H-1,2,3-triazol-1-yl)methyl)pyridin-3-yl)-1,3,4-oxadiazole]
IC50 (human recombinant HDAC1; [3]): > 50000 nM | HDAC6 selectivity (fold) (human recombinant HDAC6; HDAC6 over HDAC1): 570 fold | IC50 (human recombinant HDAC6; [4]): 87.6 nM

CN(C)CCC(=O)Nc1cccc(-c2cn(Cc3ccc(-c4nnc(C(F)F)o4)cn3)nn2)c1 [Compound 4229, N-(3-(1-((5-(5-(difluoromethyl)-1,3,4-oxadiazol-2-yl)pyridin-2-yl)methyl)-1H-1,2,3-triazol-4-yl)phenyl)-3-(dimethylamino)propanamide]
IC50 (human recombinant HDAC1; [1]): > 50000 nM | HDAC6 selectivity (fold) (human recombinant HDAC6; HDAC1 IC50 / HDAC6 IC50): 1742 fold | IC50 (human recombinant HDAC6; [2]): 28.7 nM

Fc1cc(-c2cn(Cc3ncc(-c4nnc(C(F)F)o4)cc3F)nn2)ccc1CN1CCC1 [Compound 18947, 2-(6-((4-(4-(azetidin-1-ylmethyl)-3-fluorophenyl)-1H-1,2,3-triazol-1-yl)methyl)-5-fluoropyridin-3-yl)-5-(difluoromethyl)-1,3,4-oxadiazole]
IC50 (human recombinant HDAC1; [3]): > 50000 nM | HDAC6 selectivity (fold) (human recombinant HDAC6; HDAC6 over HDAC1): 1262 fold | IC50 (human recombinant HDAC6; [4]): 39.6 nM

Fc1cc(-c2nnc(C(F)F)o2)ccc1Cn1cc(-c2cccc3c2OC(F)(F)O3)nn1 [Compound 18470, 2-(4-((4-(2,2-difluorobenzo[d][1,3]dioxol-4-yl)-1H-1,2,3-triazol-1-yl)methyl)-3-fluorophenyl)-5-(difluoromethyl)-1,3,4-oxadiazole]
IC50 (human recombinant HDAC1; [3]): > 50000 nM | HDAC6 selectivity (fold) (human recombinant HDAC6; HDAC6 over HDAC1): 506 fold | IC50 (human recombinant HDAC6; [4]): 98.7 nM

OCc1c(-c2ccccc2)nnn1Cc1ccc(-c2nnc(C(F)F)o2)cc1F [Compound 4479, (1-(4-(5-(difluoromethyl)-1,3,4-oxadiazol-2-yl)-2-fluorobenzyl)-4-phenyl-1H-1,2,3-triazol-5-yl)methanol]
IC50 (human recombinant HDAC1; [1]): > 50000 nM | HDAC6 selectivity (fold) (human recombinant HDAC6; HDAC1 IC50 / HDAC6 IC50): 103 fold | IC50 (human recombinant HDAC6; [2]): 483 nM

CCN1CCC(c2cccc(-c3cn(Cc4ccc(-c5nnc(C(F)F)o5)cc4F)nn3)c2)CC1 [Compound 4291, 2-(difluoromethyl)-5-(4-((4-(3-(1-ethylpiperidin-4-yl)phenyl)-1H-1,2,3-triazol-1-yl)methyl)-3-fluorophenyl)-1,3,4-oxadiazole]
IC50 (human recombinant HDAC1; [1]): > 50000 nM | HDAC6 selectivity (fold) (human recombinant HDAC6; HDAC1 IC50 / HDAC6 IC50): 1170 fold | IC50 (human recombinant HDAC6; [2]): 42.7 nM

CCC(=O)N1CCN(c2cccc(-c3cn(Cc4ccc(-c5nnc(C(F)F)o5)cc4)nn3)c2)CC1 [Compound 4372, 1-(4-(3-(1-(4-(5-(difluoromethyl)-1,3,4-oxadiazol-2-yl)benzyl)-1H-1,2,3-triazol-4-yl)phenyl)piperazin-1-yl)propan-1-one]
IC50 (human recombinant HDAC1; [1]): > 50000 nM | HDAC6 selectivity (fold) (human recombinant HDAC6; HDAC1 IC50 / HDAC6 IC50): 724 fold | IC50 (human recombinant HDAC6; [2]): 69 nM

OC1(c2cn(Cc3ccc(-c4nnc(C(F)F)o4)cc3F)nn2)COC1 [Compound 4278, 3-(1-(4-(5-(difluoromethyl)-1,3,4-oxadiazol-2-yl)-2-fluorobenzyl)-1H-1,2,3-triazol-4-yl)oxetan-3-ol]
IC50 (human recombinant HDAC1; [1]): > 50000 nM | HDAC6 selectivity (fold) (human recombinant HDAC6; HDAC1 IC50 / HDAC6 IC50): 160 fold | IC50 (human recombinant HDAC6; [2]): 311 nM

FC(F)c1nnc(-c2ccc(Cn3cc(-c4cccc5c4CN(C4COC4)C5)nn3)cc2)o1 [Compound 4533, 2-(difluoromethyl)-5-(4-((4-(2-(oxetan-3-yl)isoindolin-4-yl)-1H-1,2,3-triazol-1-yl)methyl)phenyl)-1,3,4-oxadiazole]
IC50 (human recombinant HDAC1; [3]): > 50000 nM | HDAC6 selectivity (fold) (human recombinant HDAC6; HDAC6 over HDAC1): 318 fold | IC50 (human recombinant HDAC6; [4]): 157 nM

FC(F)c1nnc(-c2ccc(Cn3cc(-c4ccc5[nH]cnc5c4)nn3)nc2)o1 [Compound 3843, 2-(6-((4-(1H-benzo[d]imidazol-5-yl)-1H-1,2,3-triazol-1-yl)methyl)pyridin-3-yl)-5-(difluoromethyl)-1,3,4-oxadiazole]
IC50 (human recombinant HDAC1; [1]): > 50000 nM | HDAC6 selectivity (fold) (human recombinant HDAC6; HDAC1 IC50 / HDAC6 IC50): 5952 fold | IC50 (human recombinant HDAC6; [2]): 8.4 nM

CN(C)CCN(C)C(=O)c1cccc(-c2cn(Cc3ccc(-c4nnc(C(F)F)o4)cn3)nn2)c1 [Compound 4449, 3-(1-((5-(5-(difluoromethyl)-1,3,4-oxadiazol-2-yl)pyridin-2-yl)methyl)-1H-1,2,3-triazol-4-yl)-N-(2-(dimethylamino)ethyl)-N-methylbenzamide]
IC50 (human recombinant HDAC1; [1]): > 50000 nM | HDAC6 selectivity (fold) (human recombinant HDAC6; HDAC1 IC50 / HDAC6 IC50): 3759 fold | IC50 (human recombinant HDAC6; [2]): 13.3 nM

CN(C)Cc1ccc(-c2cn(Cc3ccc(-c4nnc(C(F)F)o4)cc3F)nn2)cc1 [Compound 4522, 1-(4-(1-(4-(5-(difluoromethyl)-1,3,4-oxadiazol-2-yl)-2-fluorobenzyl)-1H-1,2,3-triazol-4-yl)phenyl)-N,N-dimethylmethanamine]
IC50 (human recombinant HDAC1; [3]): > 50000 nM

CN1CC(c2ccc(-c3cn(Cc4ccc(-c5nnc(C(F)F)o5)cc4F)nn3)cc2)C1 [Compound 17698]
IC50 (human recombinant HDAC1; [3]): > 50000 nM

FC(F)c1nnc(-c2ccc(Cn3cc(-c4ccc5[nH]ncc5c4)nn3)cc2)o1 [Compound 4344, 2-(4-((4-(1H-indazol-5-yl)-1H-1,2,3-triazol-1-yl)methyl)phenyl)-5-(difluoromethyl)-1,3,4-oxadiazole]
IC50 (human recombinant HDAC1; [1]): > 50000 nM

CN(C)Cc1ccc(-c2cn(Cc3ccc(-c4nnc(C(F)F)o4)cc3F)nn2)s1 [Compound 17914, 1-(5-(1-(4-(5-(difluoromethyl)-1,3,4-oxadiazol-2-yl)-2-fluorobenzyl)-1H-1,2,3-triazol-4-yl)thiophen-2-yl)-N,N-dimethylmethanamine]
IC50 (human recombinant HDAC1; [3]): > 50000 nM

CC(C)N1Cc2ccc(-c3cn(Cc4ccc(-c5nnc(C(F)F)o5)cc4F)nn3)cc2C1 [Compound 4517, 2-(difluoromethyl)-5-(3-fluoro-4-((4-(2-isopropylisoindolin-5-yl)-1H-1,2,3-triazol-1-yl)methyl)phenyl)-1,3,4-oxadiazole]
IC50 (human recombinant HDAC1; [3]): > 50000 nM

FC(F)c1nnc(-c2ccc(Cn3cc(-c4cn[nH]c4)nn3)nc2)o1 [Compound 3985, 2-(6-((4-(1H-pyrazol-4-yl)-1H-1,2,3-triazol-1-yl)methyl)pyridin-3-yl)-5-(difluoromethyl)-1,3,4-oxadiazole]
IC50 (human recombinant HDAC1; [1]): > 50000 nM

CCN1CCC(c2cccc(-c3cn(Cc4ccc(-c5nnc(C(F)F)o5)cn4)nn3)c2)CC1 [Compound 4011, 2-(difluoromethyl)-5-(6-((4-(3-(1-ethylpiperidin-4-yl)phenyl)-1H-1,2,3-triazol-1-yl)methyl)pyridin-3-yl)-1,3,4-oxadiazole]
IC50 (human recombinant HDAC1; [1]): > 50000 nM

CC(C)(F)C(=O)Nc1cccc(-c2cn(Cc3ccc(-c4nnc(C(F)F)o4)cc3F)nn2)c1 [Compound 4334]
IC50 (human recombinant HDAC1; [1]): > 50000 nM

CN1CCN(c2cc(-c3cn(Cc4ccc(-c5nnc(C(F)F)o5)cc4F)nn3)ccn2)CC1 [Compound 4633, 2-(difluoromethyl)-5-(3-fluoro-4-((4-(2-(4-methylpiperazin-1-yl)pyridin-4-yl)-1H-1,2,3-triazol-1-yl)methyl)phenyl)-1,3,4-oxadiazole]
IC50 (human recombinant HDAC1; [3]): > 50000 nM

Fc1ccc(-c2cn(Cc3ccc(-c4nnc(C(F)F)o4)cc3)nn2)cc1F [Compound 3661, 2-(difluoromethyl)-5-(4-((4-(3,4-difluorophenyl)-1H-1,2,3-triazol-1-yl)methyl)phenyl)-1,3,4-oxadiazole]
IC50 (human recombinant HDAC1; [1]): > 50000 nM

Fc1cc(-c2nnc(C(F)F)o2)ccc1Cn1cc(-c2ccn3ccnc3c2)nn1 [Compound 17198, 2-(difluoromethyl)-5-(3-fluoro-4-((4-(imidazo[1,2-a]pyridin-7-yl)-1H-1,2,3-triazol-1-yl)methyl)phenyl)-1,3,4-oxadiazole]
IC50 (human recombinant HDAC1; [3]): > 50000 nM
